Type in all cases: functional
Test [1] relates to Mycobacterium tuberculosis. Description: Antimycobacterial activity against multi-drug resistant Mycobacterium tuberculosis.
For test [2], the system named is Mycobacterium tuberculosis. The experiment in a line: Antibacterial activity against fluoroquinolone-resistant Mycobacterium tuberculosis H37Rv assessed as reduction in bacterial growth measured after 16 to 18 hrs by serial dilution method. To be noted: time 16-18 hrs.
The test system of test [3] is Mycobacterium tuberculosis. The experiment in a line: Antitubercular activity against multi-drug resistant Mycobacterium tuberculosis assessed as reduction in microbial growth measured after 3 weeks by resazurin microplate reader assay. To be noted: 504 h. For orientation: Alamar Blue is a resazurin reagent that responds to reducing activity.

Consider three molecules from ChEMBL document CHEMBL5634083, “Targeting polyketide synthase 13 for the treatment of tuberculosis” (Eur J Med Chem, 2023).

The structures appear in SMILES notation. Values after ≈ are worked out from the molar mass of the structure shown.

For the molecule `CCOC(=O)c1c(NC(=O)c2c(F)c(F)c(F)c(F)c2F)sc2c1CCN(CC)C2`, 0.2 µM (≈ 0.0897 µg/mL) was the least that counted as inhibitory in test [1] (MIC).

Turning to `CC(=O)c1c(C)n(-c2ccc(N(C)C)cc2)c2ccc(O)c(CN3CCCC3)c12`, in test [2], the MIC90 (usually the lowest concentration that inhibits either 90% of growth or 90% of the strains tested, depending on the study) was determined as 0.244 µM (≈ 0.0955 µg/mL).

Turning to `O=C(c1ccccc1)c1cc(Cl)ccc1OCc1nc(-c2ccc(C(F)(F)F)cc2)no1`, the MIC (as a rule, the lowest concentration that inhibits growth of the organism) in test [3] amounted to 16 µg/mL.
